Values after ≈ are worked out from the molar mass of the structure shown.
Legend:
[1] = Toxicity in human infected with SARS-CoV2 assessed as adverse events at 1600 mg, po administered twice on day 1 and 600 mg BID on day 2 to 14 and measured after 14 days; assay type: organism-based; conditions: in vivo, 336 h, time 14 day
SARS-CoV-2 [2] = assay: Antiviral activity against 2019-nCoV BetaCoV/Wuhan/WIV04/2019 infected in African green monkey VeroE6 cells assessed as reduction in viral yield preincubated with virus for 1 hr followed by cell infection and […] by qRT-PCR method; assay type: functional, organism-based; conditions: Severe acute respiratory syndrome coronavirus 2, BetaCoV/Wuhan/WIV04/2019, Vero C1008
[3] = Selectivity index, ratio of CC50 for African green monkey Vero E6 cells to EC50 for 2019-nCoV Beta CoV/Wuhan/WIV04/2019 infected in African green monkey Vero E6 cells; assay type: toxicity, Vero C1008; conditions: read-out: Ratio CC50/EC50
SARS-CoV-2 [4] = assay: Antiviral actvity against SARS-CoV2 infected in human assessed as improvement rate of chest at 1600 mg, po administered twice on day 1 and 600 mg BID on day 2 to 14 and measured after 14 days by computed tomography; assay type: functional, Severe acute respiratory syndrome coronavirus 2; conditions: time 14 day
SARS-CoV-2 [5] = assay: Antiviral actvity against SARS-CoV2 infected in human assessed as latency time to cough relief at 1600 mg administered twice on day 1 and 600 mg BID for 7 days; assay type: functional, Severe acute respiratory syndrome coronavirus 2; conditions: time 7 day
Zaire ebolavirus [6] = assay: Antiviral activity against Zaire Ebola virus infected in IFNAR-/- C57BL/6 mouse assessed as mouse survival at 300 mg/kg, po administered twice daily starting from day 6 post infection until day 13 post infection and measured at the end of 3 weeks; assay type: functional
SARS-CoV-2 [7] = assay: Antiviral actvity against SARS-CoV2 infected in human assessed as latency time to pyrexia reduction at 1600 mg administered twice on day 1 and 600 mg BID for 7 days; assay type: functional, Severe acute respiratory syndrome coronavirus 2; conditions: time 7 day
[8] = Cytotoxicity against African green monkey Vero E6 cells by the CCK8 assay; assay type: cell-based, Vero C1008; conditions: chlorocebus sabaeus
Zaire ebolavirus [9] = assay: Antiviral activity against Zaire Ebola virus infected in African green monkey Vero E6 cells measured after 5 days by immunofocus assay; assay type: functional, organism-based; conditions: Vero C1008, 120 h
Human coronavirus 229E [10] = assay: Antiviral activity against HCoV-229E infected in human MRC-5 cells incubated for 96 hrs by XTT assay; assay type: functional, organism-based; conditions: MRC5, 96 h
[11] = Selectivity ratio of CC50 for human MRC5 cells to EC50 for HCoV-229E infected in human MRC5 cells; assay type: toxicity, cell-based; conditions: read-out: Ratio CC50/EC50
[12] = Cytotoxicity against human MRC5 cells incubated for 96 hrs by XTT assay; assay type: cell-based
Human coronavirus OC43 = assay: Antiviral activity against wild type HCoV-OC43 infected in human Huh-7 cells preincubated for 1 hrs followed by overlaying with reduced-serum Medium and measured after 72 hrs ELISpot assay; assay type: functional, cell-based; conditions: Betacoronavirus 1, Huh-7
SARS-CoV [13] = assay: Antiviral activity against SARS-CoV expressing green fluorescent protein infected in human airway epithelial cells incubated for 48 hrs by RT-PCR method; assay type: functional, organism-based; conditions: Severe acute respiratory syndrome-related coronavirus, HAE
Huh-7 = assay: Cytotoxicity against human Huh7 cells incubated for 6 days by cellTiter-Glo assay; assay type: functional; conditions: Huh-7, 144 h, time 6 day
[14] = Cytotoxicity against HAE cells by CellTiter-Glo assay; assay type: cell-based; conditions: human
Human coronavirus 229E [15] = assay: Antiviral activity against HCoV-229E infected in human Huh7 cells assessed as reduction in virus induced cytopathic effect incubated for 6 days by cellTiter-Glo assay; assay type: functional, organism-based; conditions: Huh-7, 144 h
[16] = Cytotoxicity against human Huh-7 cells by CellTiter-Glo assay; assay type: cell-based
[17] = Cytotoxicity against Rhesus macaque FRhK-4 cells by MTT assay; assay type: cell-based, Macaca mulatta; conditions: rhesus monkey
[18] = Inhibition of SARS Coronavirus helicase pp1ab domain assessed as reduction in helicase activity using DT20Cy3/Release BHQ oligomers by FRET-based assay; set-up: species or system Severe acute respiratory syndrome-related coronavirus
[19] = Inhibition of SARS Coronavirus helicase pp1ab domain assessed as reduction in ATPase activity by phosphomolybdate-malachite green assay; set-up: species or system Severe acute respiratory syndrome-related coronavirus
SARS-CoV [20] = assay: Antiviral actvity against SARS-CoV GZ50 infected in Rhesus macaque FRhK-4 cells assessed as reduction in virus-induced cytopathic effect incubated for 24 to 48 hrs by phase-contrast microscopy; assay type: functional, organism-based; conditions: Severe acute respiratory syndrome-related coronavirus, GZ50, FRhK-4
SARS-CoV [21] = assay: Antiviral activity against SARS-CoV by cell-based assay; assay type: functional; conditions: Severe acute respiratory syndrome-related coronavirus

Question: Which Activity [1] does the source give for NC(=O)c1nc(F)cnc1O here?
Answer: The Activity was 11.4%.

Question: What about the IC50 (SARS-CoV-2 [2]) of the same compound?
Answer: The IC50 was 61.8 µM.

Question: And the selectivity ratio [3]?
Answer: Its selectivity ratio is greater than 6.46.

Question: And the Activity (SARS-CoV-2 [4])?
Answer: Its Activity is 91.4%.

Question: And the Time (SARS-CoV-2 [5])?
Answer: The Time was 1.75 days.

Question: And the Activity (Zaire ebolavirus [6])?
Answer: Its Activity is 100%.

Question: What about the Time (SARS-CoV-2 [7]) of the same compound?
Answer: The Time was 1.7 days.

Question: And the CC50 [8]?
Answer: The CC50 was greater than 400 µM.

Question: And the IC50 (Zaire ebolavirus [9])?
Answer: The IC50 was 67 µM.

Question: Which EC50 (Human coronavirus 229E [10]) does the source give for C[C@H]1O[C@@H](O[C@H]2CC[C@@]3(C)[C@@H](CC[C@]4(C)[C@@H]3C=CC3=C5CC(C)(C)CC[C@]5(CO)[C@H](O)C[C@]34C)[C@]2(C)CO)[C@H](O)[C@@H](O[C@@H]2O[C@H](CO)[C@@H](O)[C@H](O)[C@H]2O)[C@H]1O here?
Answer: Its EC50 is 1.7 µM.

Question: What about the selectivity ratio [11] of the same compound?
Answer: The selectivity ratio was 222.

Question: And the CC50 at 96 h [12]?
Answer: The CC50 at 96 h was 383 µM.

Question: With CCC(CC)COC(=O)[C@H](C)N[P@](=O)(OC[C@H]1O[C@@](C#N)(c2ccc3c(N)ncnn23)[C@H](O)[C@@H]1O)Oc1ccccc1 as the compound, how does the EC50 (Human coronavirus OC43) read?
Answer: Its EC50 is 0.15 µM.

Question: And the EC50 (SARS-CoV [13])?
Answer: Its EC50 is 0.06 µM.

Question: And the CC50 (Huh-7)?
Answer: Its CC50 is greater than 10 µM.

Question: And the CC50 [8]?
Answer: Its CC50 is 100 µM.

Question: What about the CC50 [14] of the same compound?
Answer: The CC50 was greater than 10 µM.

Question: What about the EC50 (Human coronavirus 229E [15]) of the same compound?
Answer: The EC50 was 0.024 µM.

Question: What about the CC50 [16] of the same compound?
Answer: The CC50 was greater than 10 µM.

Question: With Cc1ncc(CO)c(C23OC4(O)CC(O)(CC(O)(C4)O2)O3)c1O as the compound, how does the CC50 [17] read?
Answer: The CC50 was 390 µM.

Question: And the IC50 [18]?
Answer: The IC50 was 3 µM.

Question: What about the IC50 [19] of the same compound?
Answer: The IC50 was 2.3 µM.

Question: What about the EC50 (SARS-CoV [20]) of the same compound?
Answer: Its EC50 is less than 10 µM.

Question: With C[C@@H]1O[C@@H](O[C@H]2[C@H](O[C@H]3CC[C@@]4(C)[C@@H](CC[C@]5(C)[C@@H]4CC=C4[C@@H]6CC(C)(C)CC[C@]6(C(=O)O)CC[C@]45C)[C@]3(C)CO)OC[C@H](O)[C@@H]2O)[C@H](O)[C@H](O)[C@H]1O [ALPHA-HEDERIN] as the compound, how does the MIC (SARS-CoV [21]) read?
Answer: The MIC was 10 µM (≈ 7.51 µg/mL).
